# Test results from article PMC6576746, “Rational discovery of dual-indication multi-target PDE/Kinase inhibitor for precision anti-cancer therapy using structural systems pharmacology” (PLoS Computational Biology, 2019).
# Assays:
# Assay in all cases: cells
# Design in all cases: species or system panel of human cancer cell lines; Eurofins OncoPanel proliferation; nuclei count by high-content fluorescence imaging, 10-point dose response
# BxPC-3 = conditions: Homo sapiens, BXPC-3, 72 h, cell count, 3 days
# How it was run: (§1)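 Cells in RPMI 1640/10% FBS or special medium received compound the day after seeding, with a time-zero plate; 3-day incubation at 37°C, 5% CO2. Nuclei imaged by fluorescence microscopy; 10 half-log doses from 100 μM, 0.1% DMSO. EC50, IC50, GI50 and activity area (0–10) from curve fits.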
# CCRFCEM = conditions: Homo sapiens, CCRF-CEM, 72 h, cell count, 3 days
# How it was run: as §1
# ChaGoK1 = conditions: Homo sapiens, ChaGo-K-1, 72 h, cell count, 3 days
# How it was run: as §1
# HCT-8 = conditions: Homo sapiens, HCT-8, 72 h, cell count, 3 days
# How it was run: as §1
# HT-1197 = conditions: Homo sapiens, HT1197, 72 h, cell count, 3 days
# How it was run: as §1
# HT = conditions: Homo sapiens, HT, 72 h, cell count, 3 days
# How it was run: as §1
# Hs 445 = conditions: Hs 445, 72 h, cell count, 3 days
# How it was run: as §1
# Hs 729 = conditions: 72 h, cell count, 3 days
# How it was run: as §1
# HuCCT1 = conditions: Homo sapiens, HuCCT-1, 72 h, cell count, 3 days
# How it was run: as §1
# NCI-H508 = conditions: Homo sapiens, NCI-H508, 72 h, cell count, 3 days
# How it was run: as §1
# REC-1 = conditions: Homo sapiens, Rec1, 72 h, cell count, 3 days
# How it was run: as §1
# SKO-007 = conditions: SKO-007, 72 h, cell count, 3 days
# How it was run: as §1
# SW48 = conditions: Homo sapiens, SW48, 72 h, cell count, 3 days
# How it was run: as §1
# TE 381.T = conditions: TE 381.T, 72 h, cell count, 3 days
# How it was run: as §1
# [1] = 50% of maximum possible response
smiles,measurement,setting,value
C[C@@H]1CC(=O)NN=C1c1ccc(NN=C(C#N)C#N)cc1 [levosimendan],IC50,BxPC-3; [1],89.2 µM
same,GI50,BxPC-3; corrected for time zero,78 µM
same,EC50,BxPC-3; curve inflection point,89.2 µM
same,IC50,CCRFCEM; [1],35.5 µM
same,GI50,CCRFCEM; corrected for time zero,28.5 µM
same,EC50,CCRFCEM; curve inflection point,35.5 µM
same,IC50,ChaGoK1; [1],84.9 µM
same,GI50,ChaGoK1; corrected for time zero,57.2 µM
same,EC50,ChaGoK1; curve inflection point,84.9 µM
same,IC50,HCT-8; [1],23.9 µM
same,GI50,HCT-8; corrected for time zero,23.3 µM
same,EC50,HCT-8; curve inflection point,23.2 µM
same,IC50,HT-1197; [1],> 100 µM
same,GI50,HT-1197; corrected for time zero,96 µM
same,EC50,HT-1197; curve inflection point,> 100 µM
same,IC50,HT; [1],69.4 µM
same,GI50,HT; corrected for time zero,56.9 µM
same,EC50,HT; curve inflection point,69.4 µM
same,IC50,Hs 445; [1],30.6 µM
same,GI50,Hs 445; corrected for time zero,21.8 µM
same,EC50,Hs 445; curve inflection point,26.3 µM
same,IC50,Hs 729; [1],> 100 µM
same,GI50,Hs 729; corrected for time zero,79.3 µM
same,EC50,Hs 729; curve inflection point,> 100 µM
same,IC50,HuCCT1; [1],27.5 µM
same,GI50,HuCCT1; corrected for time zero,24.8 µM
same,EC50,HuCCT1; curve inflection point,25.4 µM
same,IC50,NCI-H508; [1],38.4 µM
same,GI50,NCI-H508; corrected for time zero,33.5 µM
same,EC50,NCI-H508; curve inflection point,38.4 µM
same,IC50,REC-1; [1],25.2 µM
same,GI50,REC-1; corrected for time zero,9.04 µM
same,EC50,REC-1; curve inflection point,25.2 µM
same,IC50,SKO-007; [1],42 µM
same,GI50,SKO-007; corrected for time zero,22.3 µM
same,EC50,SKO-007; curve inflection point,42 µM
same,IC50,SW48; [1],13.5 µM
same,GI50,SW48; corrected for time zero,9.81 µM
same,EC50,SW48; curve inflection point,13.5 µM
same,IC50,TE 381.T; [1],24.5 µM
same,GI50,TE 381.T; corrected for time zero,15.5 µM
same,EC50,TE 381.T; curve inflection point,24.5 µM
